Source: patent publication US6531512B1, “Method of treating cancer in patients having a deficiency in p53 tumor suppressor gene” (Health Research Inc., priority 1998, dated 2003)

Tests used:
[1] = tested on: SK-MEL-28 human melanoma cells; experiment: Cell growth / apoptotic response of SK-MEL-28 cells (Coulter Counter, growth kinetics); assay type: cell-based; conditions: SK-MEL-28 cells; for % Control Growth: 24 hours, Table 4; for cell growth and/or apoptosis response: growth kinetic analysis
Method: (§1) MALME-3M human melanoma cells containing wt-p53 (American Tissue Type Culture Collection, Bethesda, Md.) and human SK-MEL-28 cells containing mt-p53 (American Tissue Type Culture Collection, Bethesda, Md.) were cultured as a monolayer in RPMI 1640 medium containing 10% Nu-Serum (Collaborative Research Products, Bedford, Mass.), 1 mM aminoguanidine, penicillin (50 units/ml) and streptomycin (50 μg/ml) as described by Kramer et al, J. Biol. Chem., 270:2124-32 (1995) and Kramer et al., Cancer Res., 57:5521-5527 (1997).
(§2) MALME-3M cells were cultured as described in Example 1. The cells were seeded by adding 1×10^5 cells to a T-25 vented cell culture flask. After 24 hours, the asynchronous cell cultures were treated with 10 μM N^1, N^11-diethylnorspermine (DENSPM) prepared by dissolving DENSPM in distilled water and sterilizing the solution by filtration through a 0.22 micron Millipore membrane. The cells were treated by continuous exposure to DENSPM for 6 days (i.e., the polyamine was added to the cell culture at T=0 and the culture was incubated for the desired amount of time). The number of viable MALME-3M cells were monitored electronically using a Model ZM Coulter Counter (Coulter Electronics, Hialeah, Fla.). Untreated MALME-3M cell cultures were used as controls.
(§3) MALME-3M human melanoma cells were cultured as described in Example 1 and treated continuously with 10 μM DENSPM or 10 μM spermine (SPM) for 48 hours. SK-MEL-28 cells were also cultured as described in Example 1 and treated with 10 μM DENSPM for 24 hours. Untreated cells were used as a control.
The effect of DENSPM and spermine on cell growth was monitored using a Coulter Counter (see Example 2). The effect on cell cycle was monitored by flow cytometry as described in Example 3. […]

[2] = tested on: ornithine decarboxylate (ODC); experiment: Polyamine enzyme activity in treated melanoma cells: ODC; assay type: cell-based, human; conditions: for Enzyme Activities, ODC: SK-MEL-28 cells, 24 hours, Table 4
Method: as §3, with “treated” for “treated continuously”, “as described in Example 4.” for “for 48 hours.”, “as describe in Example 4.” for “for 24 hours.”
(§4) After treatment with DENSPM or spermine, biochemical parameters including polyamine enzymes activity, polyamine pools and analog accumulation were monitored as described by Kramer et al, J. Biol. Chem., 270:2124-32 (1995) and Kramer et al., Cancer Res., 57:5521-5527 (1997). Polyamine enzyme activity was monitored for ornithine […] (ODC); S-adenosylmethionine decarboxylase (SAMDC); and spermidine/spermine N^1-acetyltransferase (SSAT). Polyamine pools was monitored for putrescine (Put); spermidine (Spd); and spermine (Spm).
(§5) Enzyme activity and polyamine pools were measured as described in Example 5.

[3] = tested on: spermidine/spermine N^1-acetyltransferase (SSAT); experiment: Polyamine enzyme activity in treated melanoma cells: SSAT induction; assay type: cell-based, human; conditions: for Enzyme Activities, SSAT: Table 4
Method: as §3, with “treated” for “treated continuously”, “as described in Example 4.” for “for 48 hours.”, “as describe in Example 4.” for “for 24 hours.”
as §4, §5

[4] = tested on: SK-MEL-28 human melanoma cells; experiment: Polyamine pools and analog accumulation in SK-MEL-28 cells; assay type: cell-based; conditions: SK-MEL-28 cells, 24 hours; for Analog (intracellular accumulation) / Polyamine Pools, Put / Polyamine Pools, Spd / Polyamine Pools, Spm: Table 4
Method: as §3, with “treated” for “treated continuously”, “as described in Example 4.” for “for 48 hours.”, “as describe in Example 4.” for “for 24 hours.”
as §4, §5

[5] = tested on: MALME-3M human melanoma cells; experiment: Cell growth of MALME-3M cells (Coulter Counter); assay type: cell-based; conditions: 10 μM
Method: as §1, §2, §3
(§6) The effect of DENSPM and spermine on cell growth was monitored using a Coulter Counter (see Example 2). The effect on cell cycle was monitored by flow cytometry as described in Example 3.

[6] = tested on: MALME-3M human melanoma cells; experiment: Cell cycle distribution of MALME-3M cells by flow cytometry; assay type: cell-based; conditions: MALME-3M (wt-p53), asynchronous, 10 μM, 48 hours
Method: MALME-3M cells were cultured as described in Example 1 and treated with 10 μM DENSPM as described in Example 2. Cell cycle arrest was monitored using a FACScan flow cytometry unit (Becton Dickinson, San Jose, Calif.) according to the method of Krishan (1975) J. Cell Biol. 66:[…]. Untreated MALME-3M cell cultures were used as controls.
Cell cycle arrest of serum synchronized MALME-3M cells was also monitored using flow cytometry. MALME-3M cells were synchronized in G0/G1 by replacing cell culture media containing 10% NuSerum (see Example 1) with media lacking NuSerum and incubating the cultures for 120 hours. The synchronized cells were released by the addition of 10% NuSerum (control culture) or 10% NuSerum plus 10 μM DENSPM. The cells were then grown continuously in the presence of serum (control) or DENSPM for up to 96 hours. The untreated cells (control) re-established an asynchronous profile (i.e., progressed through the cell cycle) by 60 hours.
as §6

[7] = tested on: S-adenosylmethionine decarboxylase (SAMDC); experiment: Polyamine enzyme activity in treated melanoma cells: SAMDC; assay type: cell-based, human; conditions: MALME-3M (wt-p53), 10 μM, Table 2 (24 hours treatment)
Method: as §3, with “treated” for “treated continuously”, “as described in Example 4.” for “for 48 hours.”, “as describe in Example 4.” for “for 24 hours.”
as §4

[8] = tested on: MALME-3M human melanoma cells; experiment: Polyamine pools in MALME-3M cells; assay type: cell-based; conditions: MALME-3M (wt-p53), 10 μM, Table 2 (24 hours treatment)
Method: as §3, with “treated” for “treated continuously”, “as described in Example 4.” for “for 48 hours.”, “as describe in Example 4.” for “for 24 hours.”
as §4

[9] = MALME-3M (wt-p53), 10 μM, Table 2 (24 hours treatment)

Structure (SMILES) | % Control Growth [1] | cell growth and/or apoptosis response [1] | Enzyme Activities, ODC [2] | SSAT activity ([3]; SK-MEL-28 cells, 24 hours) | Enzyme Activities, SSAT ([3]; SK-MEL-28 cells, 24 hours) | Analog (intracellular accumulation) [4] | Polyamine Pools, Put [4] | Polyamine Pools, Spd [4] | Polyamine Pools, Spm [4] | also measured
CCNCCCNCCCCNCCCNCC [DE-343, N^1,N^12-diethylspermine] | 59% | apoptotic response similar to that by DENSPM with a 24 hour delay | 23 pmol/hr/mg protein | 9,470 pmol/min/mg | 9470 pmol/min/mg protein | 5830 pmol/10^6 cells | 60 pmol/10^6 cells | 60 pmol/10^6 cells | 200 pmol/10^6 cells | SSAT activity relative to DE-444 (times higher) ([3]; SK-MEL-28 cells): 10 times; SSAT activity relative to DENSPM (fold less) ([3]; SK-MEL-28 cells): about 3 fold
CCNCCCCNCCCCNCCCNCC [DE-443, 3,7,12,17-tetraazanonadecane] | 77% | apoptotic response with a 48 hour delay | 32 pmol/hr/mg protein | 5,215 pmol/min/mg | 5215 pmol/min/mg protein | 5610 pmol/10^6 cells | 20 pmol/10^6 cells | 70 pmol/10^6 cells | 500 pmol/10^6 cells | 
CCNCCCCNCCCCNCCCCNCC [DE-444, N^1,N^14-diethylhomospermine] | 97% | cytostatic response | 14 pmol/hr/mg protein | 930 pmol/min/mg | 930 pmol/min/mg protein | 5950 pmol/10^6 cells | 20 pmol/10^6 cells | 120 pmol/10^6 cells | 1015 pmol/10^6 cells | decrease in spermine pools [4]: 65%
NCCCNCCCCNCCCN [SPM, spermine, reference compound] |  |  |  |  |  |  |  |  |  | % Control Growth ([5]; MALME-3M (wt-p53), 48 hours): 96%; % Growth Control ([5]; MALME-3M (wt-p53), Table 2 (24 hours treatment)): 97%; effect on growth or cell cycle compared to control cells ([5]; MALME-3M, 48 hours): no effect; % Total Cells at 48 hours, G1 [6]: 67%; % Total Cells at 48 hours, G2/M [6]: 10%; % Total Cells at 48 hours, S [6]: 23%; ODC activity [2, 9]: 175 pmol/hr/mg protein; SAMDC activity [7]: 20 pmol/hr/mg protein; SSAT activity [3, 9]: 210 pmol/min/mg; Polyamine Pools, Put [8]: <5 pmol/10^6 cells; Polyamine Pools, Spd [8]: 470 pmol/10^6 cells; Polyamine Pools, Spm [8]: 2430 pmol/10^6 cells
